Here are results for two substances from paper PMC6328891, “Synthetic bovine lactoferrin peptide Lfampin kills Entamoeba histolytica trophozoites by necrosis and resolves amoebic intracecal infection in mice” (Bioscience Reports, 2019).

For assay [1], the system named is E. histolytica HM1:IMSS trophozoites. It counts as cell-based, Entamoeba histolytica. The note with it: MTT, 24 h. Here is the method: Axenic E. histolytica HM1:IMSS trophozoites were maintained in TYI-S-33 medium supplemented with 15% adult bovine serum (Microlab) and 3% Diamond vitamin stock solution 40× (Sigma-Aldrich) under anaerobic conditions at 37°C for 72 h. Virulence of trophozoites was maintained through successive passages into hamster liver, followed by recovery of parasites from the induced amoebic liver abscesses. Trophozoites grown for 72 h (log-phase) were harvested by ice-chilling for 5 min and centrifugation at 150 g for 5 min at 4°C.
Trophozoites were harvested from cultures after 72 h, as mentioned above, and were seeded in 96-well culture plates at 2 × 10^4 trophozoites in 200 μl of fresh TYI-S-33 medium. […] The plates were incubated for 24 h at 37°C and viability was determined using 3-[4,5-dimethylthiazol-2-yl]-2,5-diphenyltetrazolium bromide (MTT). […] Finally, the absorbance at 595 nm was measured within 15 min, using a plate reader Multiskan FC (Thermo Scientific). A MTT calibration curve was previously calculated using amoeba densities of between 1 × 10^3 and 1 × 10^5 parasites/well. […] The total number of parasites after treatments was also determined following the same methodology, but adding to the wells only 250 µM of the peptides separately and incubating for 24 h at 37°C. Amoebas were harvested by ice chilling for 5 min and counted on a hemocytometer using a Nikon TMS inverted microscope.

Assay [2] concerns E. histolytica. As to conditions: 20 mg/kg orally daily for 7 days, murine model, cited from earlier work. The source says: Intestinal parasite infections, including amoebiasis, remain the main causes of morbidity and mortality in developing countries. In Mexico, amoebiasis is included in the list of the 20 most frequent communicable diseases, as the numbers of new cases of intestinal and hepatic amoebiasis in 2016 were approximately 220000 and 560, respectively, according to the Secretary of Health (http://www.epidemiologia.salud.gob.mx/anuario/2016/morbilidad/nacional/distribucion_casos_nuevos_enfermedad_fuente_notificacion.pdf). Treatment with metronidazole and other nitro-imidazole derivatives remains the ... || Finally, our results regarding the high efficiency of the peptides at resolving murine intestinal amoebiasis opens the possibility of using them as potential new compounds for the treatment of the disease, either alone or in combination with metronidazole. This would reduce the concentration of the drug needed to resolve an amoebic infection and, in turn, reduce the adverse effects of the drug and the potential development of resistance in the parasite. The mechanism by which the peptides controlled intestinal infection by amoebas in mice remains unknown. The higher efficiency of Lfampin, whic ...

Where two headings read alike, the source gives them in different places. Ends that are not written are not given here.

The term IC50 denotes the concentration at which inhibition is half-maximal. Turning to DLIWKLLSKAQEKFGKNKSR [Lfampin], the IC50 in assay [1] (37°C, estimated (Supplementary Figure S1)) was 220 µM. The same substance returned a trophozoites killed in assay [1] (doses higher than 100 μM) of 80%.

For lactoferrin, the intestinal infection resolved result in assay [2] is recorded as “up to 63%”; in assay [2] (listed as native Lf) it was 63%.
